Results taken from EPA's CvTdb concentration-time database.

What was measured:
[1] = test system: Rat; assay: concentration in heart after dosing; conditions: 40 min; dosed: Bis 2-Chloroethoxy Methane; 20 mg/kg; iv; Female; F344
[2] = test system: Rat; assay: concentration in heart after dosing; conditions: 2 h; dosed: Bis 2-Chloroethoxy Methane; 20 mg/kg; iv; Female; F344
[3] = test system: Rat; assay: concentration in thymus after dosing; conditions: 2 h; dosed: Bis 2-Chloroethoxy Methane; 20 mg/kg; iv; Male; F344
[4] = test system: Rat; assay: concentration in plasma after dosing; conditions: dosed: Bis 2-Chloroethoxy Methane, 40 mg/kg, iv, Male, Harlan Sprague Dawley
[5] = test system: Rat; assay: concentration in brain after dosing; conditions: 864 h; dosed: Perfluorodecanoic acid; 10 mg/kg; oral; Male; Harlan Sprague Dawley
[6] = test system: Rat; assay: concentration in liver after dosing; conditions: 24 h; dosed: Perfluorodecanoic acid; 10 mg/kg; oral; Female; Harlan Sprague Dawley
[7] = test system: Rat; assay: concentration in plasma after dosing; conditions: dosed: Perfluorodecanoic acid, 2 mg/kg, iv, Male, F344
[8] = test system: Rat; assay: concentration in plasma after dosing; conditions: 6 h; dosed: Primidone; 80 mg/kg; oral; Male; F344
[9] = test system: Rat; assay: concentration in plasma after dosing; conditions: 6 h; dosed: Primidone; 130 mg/kg; oral; Female; F344
[10] = test system: Rat; assay: concentration in liver after dosing; conditions: 8 h; dosed: Thiodiglycolic Acid; 20 mg/kg; iv; Female; Harlan Sprague Dawley
[11] = test system: Rat; assay: concentration in liver after dosing; conditions: 2 h; dosed: Thiodiglycolic Acid; 20 mg/kg; iv; Male; Harlan Sprague Dawley
[12] = test system: Rat; assay: concentration in heart after dosing; conditions: 4 h; dosed: Thiodiglycolic Acid; 20 mg/kg; iv; Male; Harlan Sprague Dawley
[13] = test system: Rat; assay: concentration in plasma after dosing; conditions: 1 h; dosed: Thiodiglycolic Acid; 20 mg/kg; iv; Female; Harlan Sprague Dawley
[14] = test system: Rat; assay: concentration in thymus after dosing; conditions: 40 min; dosed: Thiodiglycolic Acid; 20 mg/kg; iv; Male; Harlan Sprague Dawley
[15] = test system: Rat; assay: concentration in thymus after dosing; conditions: 3 h; dosed: Thiodiglycolic Acid; 20 mg/kg; iv; Female; Harlan Sprague Dawley
[16] = test system: Rat; assay: concentration in thymus after dosing; conditions: 8 h; dosed: Thiodiglycolic Acid; 20 mg/kg; iv; Female; Harlan Sprague Dawley
[17] = test system: Rat; assay: concentration in plasma after dosing; conditions: 2 min; dosed: dichloroacetic acid; 10 mg/kg; iv; Male; F344
[18] = test system: rat; assay: concentration in blood after dosing; conditions: dosed: p-tert-octylphenol, Sprague-Dawley

ClCCOCOCCCl [Bis 2-Chloroethoxy Methane]
concentration in heart [1]: 3630 ng/g
concentration in heart [2]: 401 ng/g
concentration in thymus [3]: 478 ng/g
concentration in plasma ([4]; 40 min): 8120 ng/mL
concentration in plasma ([4]; 8 h): 22 ng/mL

O=C(O)C(F)(F)C(F)(F)C(F)(F)C(F)(F)C(F)(F)C(F)(F)C(F)(F)C(F)(F)C(F)(F)F [Perfluorodecanoic acid]
concentration in brain [5]: 917 ng/g
concentration in liver [6]: 138000 ng/g
concentration in plasma ([7]; 5 min): 8200 ng/mL
concentration in plasma ([7]; 192 h): 3280 ng/mL

CCC1(c2ccccc2)C(=O)NC(=O)NC1=O [Phenobarbital]
concentration in plasma [8]: 5320 ng/mL
concentration in plasma [9]: 2330 ng/mL

O=C(O)CSCC(=O)O [Thiodiglycolic Acid]
concentration in liver [10]: 45300 ng/g
concentration in liver [11]: 112000 ng/g
concentration in heart [12]: 989 ng/g
concentration in plasma [13]: 2900 ng/mL
concentration in thymus [14]: 3430 ng/g
concentration in thymus [15]: 1030 ng/g
concentration in thymus [16]: 544 ng/g

O=C(O)C(Cl)Cl [dichloroacetic acid]
concentration in plasma [17]: 22900 ng/mL

CC(C)(C)CC(C)(C)c1ccc(O)cc1 [octylphenol]
concentration in blood ([18]; 0.1573 h, 2 mg/kg, iv, male): 159 ng/mL
concentration in blood ([18]; 0.1576 h, 4 mg/kg, iv, male): 317 ng/mL
concentration in blood ([18]; 0.1581 h, 8 mg/kg, iv, male): 942 ng/mL
concentration in blood ([18]; 0.1679 h, 2 mg/kg, iv, female): 116 ng/mL
concentration in blood ([18]; 0.1763 h, 4 mg/kg, iv, female): 283 ng/mL
concentration in blood ([18]; 0.1763 h, 8 mg/kg, iv, female): 852 ng/mL
concentration in blood ([18]; 0.4805 h, 8 mg/kg, iv, male): 376 ng/mL
concentration in blood ([18]; 0.4823 h, 125 mg/kg, oral, male): 157 ng/mL
concentration in blood ([18]; 0.4883 h, 2 mg/kg, iv, male): 63.6 ng/mL
concentration in blood ([18]; 0.4888 h, 4 mg/kg, iv, male): 169 ng/mL
concentration in blood ([18]; 0.499 h, 250 mg/kg, oral, male): 244 ng/mL
concentration in blood ([18]; 0.5015 h, 50 mg/kg, oral, male): 63.7 ng/mL
concentration in blood ([18]; 0.5035 h, 125 mg/kg, male): 23.9 ng/mL
concentration in blood ([18]; 0.5155 h, 125 mg/kg, female): 19 ng/mL
concentration in blood ([18]; 0.5164 h, 2 mg/kg, iv, female): 67.8 ng/mL
concentration in blood ([18]; 0.5164 h, 4 mg/kg, iv, female): 141 ng/mL
concentration in blood ([18]; 0.5164 h, 8 mg/kg, iv, female): 430 ng/mL
concentration in blood ([18]; 0.519 h, 125 mg/kg, oral, female): 159 ng/mL
concentration in blood ([18]; 0.5202 h, 250 mg/kg, oral, female): 222 ng/mL
concentration in blood ([18]; 0.5529 h, 50 mg/kg, oral, female): 136 ng/mL
concentration in blood ([18]; 0.8196 h, 2 mg/kg, iv, male): 46.6 ng/mL
concentration in blood ([18]; 0.8247 h, 8 mg/kg, iv, male): 258 ng/mL
concentration in blood ([18]; 0.8286 h, 4 mg/kg, iv, male): 107 ng/mL
concentration in blood ([18]; 0.8355 h, 2 mg/kg, iv, female): 43.6 ng/mL
concentration in blood ([18]; 0.8355 h, 4 mg/kg, iv, female): 89.6 ng/mL
concentration in blood ([18]; 0.8397 h, 8 mg/kg, iv, female): 303 ng/mL
concentration in blood ([18]; 0.9901 h, 250 mg/kg, oral, male): 379 ng/mL
concentration in blood ([18]; 0.9911 h, 125 mg/kg, oral, male): 219 ng/mL
concentration in blood ([18]; 0.9923 h, 50 mg/kg, oral, male): 116 ng/mL
concentration in blood ([18]; 1.038 h, 125 mg/kg, oral, female): 271 ng/mL
concentration in blood ([18]; 1.051 h, 50 mg/kg, oral, female): 87.5 ng/mL
concentration in blood ([18]; 1.054 h, 125 mg/kg, male): 39.1 ng/mL
concentration in blood ([18]; 1.147 h, 8 mg/kg, iv, male): 210 ng/mL
concentration in blood ([18]; 1.155 h, 2 mg/kg, iv, male): 28.8 ng/mL
concentration in blood ([18]; 1.16 h, 4 mg/kg, iv, male): 69.7 ng/mL
concentration in blood ([18]; 1.167 h, 2 mg/kg, iv, female): 23.8 ng/mL
concentration in blood ([18]; 1.167 h, 4 mg/kg, iv, female): 71 ng/mL
concentration in blood ([18]; 1.167 h, 8 mg/kg, iv, female): 229 ng/mL
concentration in blood ([18]; 1.486 h, 2 mg/kg, iv, male): 24.8 ng/mL
concentration in blood ([18]; 1.487 h, 8 mg/kg, iv, male): 169 ng/mL
concentration in blood ([18]; 1.499 h, 8 mg/kg, iv, female): 170 ng/mL
concentration in blood ([18]; 1.5 h, 4 mg/kg, iv, male): 59.3 ng/mL
concentration in blood ([18]; 1.503 h, 2 mg/kg, iv, female): 25.3 ng/mL
concentration in blood ([18]; 1.503 h, 4 mg/kg, iv, female): 59 ng/mL
concentration in blood ([18]; 1.994 h, 2 mg/kg, iv, female): 16.1 ng/mL
concentration in blood ([18]; 1.994 h, 4 mg/kg, iv, female): 46.2 ng/mL
concentration in blood ([18]; 1.994 h, 8 mg/kg, iv, female): 128 ng/mL
concentration in blood ([18]; 2.003 h, 2 mg/kg, iv, male): 22.4 ng/mL
concentration in blood ([18]; 2.003 h, 4 mg/kg, iv, male): 39.3 ng/mL
concentration in blood ([18]; 2.004 h, 8 mg/kg, iv, male): 122 ng/mL
concentration in blood ([18]; 2.015 h, 125 mg/kg, male): 61.8 ng/mL
concentration in blood ([18]; 2.038 h, 125 mg/kg, oral, female): 235 ng/mL
concentration in blood ([18]; 2.052 h, 50 mg/kg, oral, female): 109 ng/mL
concentration in blood ([18]; 2.08 h, 250 mg/kg, oral, male): 305 ng/mL
concentration in blood ([18]; 2.081 h, 50 mg/kg, oral, male): 128 ng/mL
concentration in blood ([18]; 2.081 h, 125 mg/kg, oral, male): 171 ng/mL
concentration in blood ([18]; 2.989 h, 4 mg/kg, iv, male): 23.4 ng/mL
concentration in blood ([18]; 2.993 h, 8 mg/kg, iv, male): 72.1 ng/mL
concentration in blood ([18]; 2.998 h, 2 mg/kg, iv, female): 15.9 ng/mL
concentration in blood ([18]; 2.998 h, 4 mg/kg, iv, female): 33.8 ng/mL
concentration in blood ([18]; 3.015 h, 8 mg/kg, iv, female): 101 ng/mL
concentration in blood ([18]; 3.991 h, 4 mg/kg, iv, male): 12.2 ng/mL
concentration in blood ([18]; 3.996 h, 8 mg/kg, iv, male): 40.2 ng/mL
concentration in blood ([18]; 3.997 h, 8 mg/kg, iv, female): 57.6 ng/mL
concentration in blood ([18]; 4.014 h, 4 mg/kg, iv, female): 21.7 ng/mL
concentration in blood ([18]; 4.016 h, 50 mg/kg, oral, female): 70 ng/mL
concentration in blood ([18]; 4.022 h, 250 mg/kg, oral, female): 320 ng/mL
concentration in blood ([18]; 4.03 h, 250 mg/kg, oral, male): 260 ng/mL
concentration in blood ([18]; 4.031 h, 125 mg/kg, oral, male): 160 ng/mL
concentration in blood ([18]; 4.032 h, 50 mg/kg, oral, male): 85.1 ng/mL
concentration in blood ([18]; 4.038 h, 125 mg/kg, oral, female): 268 ng/mL
concentration in blood ([18]; 4.058 h, 125 mg/kg, male): 90.3 ng/mL
concentration in blood ([18]; 5.98 h, 125 mg/kg, male): 102 ng/mL
concentration in blood ([18]; 6.016 h, 50 mg/kg, oral, female): 69.2 ng/mL
concentration in blood ([18]; 6.02 h, 125 mg/kg, oral, female): 210 ng/mL
concentration in blood ([18]; 6.021 h, 250 mg/kg, oral, female): 268 ng/mL
concentration in blood ([18]; 6.034 h, 250 mg/kg, oral, male): 192 ng/mL
concentration in blood ([18]; 6.07 h, 50 mg/kg, oral, male): 87 ng/mL
concentration in blood ([18]; 6.07 h, 125 mg/kg, oral, male): 123 ng/mL
concentration in blood ([18]; 7.933 h, 50 mg/kg, oral, male): 77.3 ng/mL
concentration in blood ([18]; 8 h, 50 mg/kg, oral, female): 93.2 ng/mL
concentration in blood ([18]; 8.003 h, 125 mg/kg, oral, female): 205 ng/mL
concentration in blood ([18]; 8.003 h, 125 mg/kg, oral, male): 95.8 ng/mL
concentration in blood ([18]; 8.005 h, 250 mg/kg, oral, female): 357 ng/mL
concentration in blood ([18]; 8.019 h, 250 mg/kg, oral, male): 210 ng/mL
concentration in blood ([18]; 8.091 h, 125 mg/kg, male): 180 ng/mL
concentration in blood ([18]; 11.97 h, 250 mg/kg, oral, female): 373 ng/mL
concentration in blood ([18]; 11.98 h, 50 mg/kg, oral, female): 69.7 ng/mL
concentration in blood ([18]; 11.99 h, 50 mg/kg, oral, male): 37.2 ng/mL
concentration in blood ([18]; 11.99 h, 125 mg/kg, oral, male): 84.2 ng/mL
concentration in blood ([18]; 11.99 h, 250 mg/kg, oral, male): 157 ng/mL
concentration in blood ([18]; 12.02 h, 125 mg/kg, oral, female): 209 ng/mL
concentration in blood ([18]; 12.04 h, 125 mg/kg, male): 122 ng/mL
concentration in blood ([18]; 24.01 h, 50 mg/kg, oral, female): 24.7 ng/mL
concentration in blood ([18]; 24.02 h, 250 mg/kg, oral, male): 107 ng/mL
concentration in blood ([18]; 24.03 h, 50 mg/kg, oral, male): 7.77 ng/mL
concentration in blood ([18]; 24.03 h, 125 mg/kg, male): 54.7 ng/mL
concentration in blood ([18]; 24.03 h, 125 mg/kg, oral, female): 63.5 ng/mL
concentration in blood ([18]; 24.04 h, 125 mg/kg, oral, male): 28.8 ng/mL
concentration in blood ([18]; 24.04 h, 250 mg/kg, oral, female): 307 ng/mL
